Results reported in US20060252683A1, “Preparation of a peptide compound (SYRAPRO-2000) and its use for the activation of protein phosphatase-2A1 enzyme” (priority 2005, published 2006).

Target: protein phosphatase-2A1 (Homo sapiens, UniProt P67775)
Assay: Assay of purified protein phosphatase-2A1 in vitro with 32P-labeled phosphorylase a as substrate
Assay type: biochemical
Set-up: Protein phosphatase-2A1 purified from CD^4+ T cells as described in materials and method; endogenous in cells; host or cells: Jurkat cells; enzyme purified by DEAE Sepharose, Sephacryl S-300 HR and poly-L-lysine Agarose
Conditions: purified enzyme from Jurkat cells, in vitro
Method: Protein phosphatase-2A1 purified from CD^4+ T cells as described in materials and method was assayed in the presence of various concentrations of SYRAPRO-2000. 100 percent protein phosphatase-2A1 activity is equivalent to 0.005 unit. Similar result were obtained in 3 independent experiments.
The effect of synthesized SYRAPRO-2000 on purified protein phosphatase-2A1 can be determined in vitro. Protein phosphatase-2A1 can be assayed using ^32P-labeled phosphorylase a as substrate in the presence of various concentrations of SYRAPRO-2000. Protein phosphatase-2A1 is activated in the presence of SYRAPRO-2000.
Protein phosphatase-1 was assayed as described in (Cohen 1988). Protein phosphatase-2B was assayed as described in (Tung 1986). Protein phosphatase-2C was assayed as described in (Tung 1986) except Ca^2+ and calmodulin were omitted. The assay of protein phosphatases-2A1 consisted of 0.02 ml of enzyme solution in 50 mM Imidazole-Cl pH 7.2, 0.2 mM EGTA, 0.1% (v/v) 2-mercaptoethanol and 1 mg/ml bovine serum albumin (Assay Buffer), 0.01 ml of inhibitor-2 at 600 nM in Assay Buffer, 0.01 ml of protamine at 60 μg/ml in Assay Buffer or 0.01 ml of SYRAPRO-2000 at different concentrations in Assay Buffer or 0.01 ml of Assay Buffer alone, 0.02 ml of ^32P-labeled phosphorylase a at 3 mg/ml in Assay Buffer containing 15 mM caffeine. The assay components were preincubated for 10 minutes prior to initiating the reaction with ^32P-labeled phosphorylase a. One unit of protein phosphatase activity is that amount of enzyme which catalyzes the release of 1 nmol of phosphate from ^32P-labeled substrate per min at 30° C.
Jurkat cells, a human transformed CD^4+ T cell line, were grown in grown in RPMI 1680 supplemented with 5% (v/v) fetal bovine serum at 37° C. in 95% air/5% CO2 in a humidified incubator. 2.4 liters of cells were collected by centrifugation at 4200 rpm in a low speed centrifuge for 10 minutes. The cells were homogenized in 80 ml of 50 mM Imidazole-Cl pH 7.2, 2 mM EGTA, 2 mM EDTA, 0.1% (v/v) 2-mercaptoethanol, 0.2 mM PMSF, 1 mM benzamidine, 4 μg/ml aprotinin, 4 μg/ml leupeptin, 4 μg/ml pepstatin, 0.1 mM TLCK, 0.1 mM TPCK, 1 mM sodium orthovanadate and 10% (v/v) glycerol by 40 strokes in a glass hand held homogenizer. The homogenate was centrifuged at 29000 rpm in a high speed centrifuge for 30 minutes. The supernatant (i.e the extract) was collected and loaded onto a DEAE Sepharose column (1.5×6 cm) equilibrated in 25 mM Imidazole-Cl pH 7.2, 0.2 mM EGTA, 0.1% (v/v) 2-mercaptoethanol, 0.1 mM PMSF, 1 mM benzamidine and 10% (v/v) glycerol (Buffer A). The column was washed with 50 ml of Buffer and then eluted with a 200 ml linear gradient of Buffer A to Buffer A plus 0.4 M NaCl. The eluted fractions were then assayed for phosphorylase phosphatase activity in the presence of 100 nM inhibitor-2 and 10 μg/ml of protamine. Two major peaks of phosphorylase phosphatase were observed. The first and second peak represent protein phosphatase-2A0 and protein phosphatase-2A1 respectively. […] The major activity eluting as a species of apparent molecular mass 300 kDa was collected, diluted four fold in Buffer A and loaded onto a poly-L-lysine Agarose Column (1.5×4 cm) equilibrated in Buffer A. The column was washed with 50 ml of Buffer A and then eluted with a 200 ml linear gradient of Buffer A to Buffer A plus 0.5 M NaCl. The active fractions eluting at ˜0.30 M NaCl salt concentration was pooled, concentrated by vacuum dialysis and stored at ^−20° C. in 50 mM Imidazole-Cl pH 7.2, 0.2 mM EGTA in the presence of 50% (v/v) glycerol. The highly purified enzyme consisted of the characteristic subunits of protein phosphatase-2A1, namely the A, B and C subunits. […] It is difficult to determine the activity of protein phosphatase-2A1 in CD^4+ T cell extract. However, assuming that it represented about 66 percent of total type 2A protein phosphatase activity in CD^4+ T cell extract, the specific activity of the enzyme in extract was estimated to be 0.3 unit/mg. […]

Sequence of protein phosphatase-2A1 (P67775 whole entry): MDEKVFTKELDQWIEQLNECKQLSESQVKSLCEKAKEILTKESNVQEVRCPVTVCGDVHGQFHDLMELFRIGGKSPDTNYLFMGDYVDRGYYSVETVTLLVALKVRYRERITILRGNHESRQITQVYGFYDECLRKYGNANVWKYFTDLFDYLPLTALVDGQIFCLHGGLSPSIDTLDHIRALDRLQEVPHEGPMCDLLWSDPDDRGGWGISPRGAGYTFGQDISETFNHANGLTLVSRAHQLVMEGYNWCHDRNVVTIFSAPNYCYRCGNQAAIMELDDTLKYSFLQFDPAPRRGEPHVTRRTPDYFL
Sequence of protein phosphatase-2A1 (P30153 whole entry partner): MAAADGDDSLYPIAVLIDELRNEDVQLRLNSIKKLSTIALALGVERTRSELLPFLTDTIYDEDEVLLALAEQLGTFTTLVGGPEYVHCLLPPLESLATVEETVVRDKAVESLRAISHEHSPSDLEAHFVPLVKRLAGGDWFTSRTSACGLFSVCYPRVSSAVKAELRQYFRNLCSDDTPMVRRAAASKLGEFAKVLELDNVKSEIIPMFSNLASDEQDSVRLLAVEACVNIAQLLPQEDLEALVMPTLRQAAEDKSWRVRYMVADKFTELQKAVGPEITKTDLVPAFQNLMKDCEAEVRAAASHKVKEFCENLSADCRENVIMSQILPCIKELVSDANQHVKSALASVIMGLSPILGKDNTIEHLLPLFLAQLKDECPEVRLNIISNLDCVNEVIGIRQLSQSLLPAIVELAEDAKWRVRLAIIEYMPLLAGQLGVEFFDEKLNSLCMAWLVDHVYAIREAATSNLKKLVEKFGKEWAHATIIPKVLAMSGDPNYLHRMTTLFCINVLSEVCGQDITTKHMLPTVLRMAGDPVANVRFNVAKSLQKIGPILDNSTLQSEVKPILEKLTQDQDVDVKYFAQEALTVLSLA
Sequence of protein phosphatase-2A1 (P63151 whole entry partner): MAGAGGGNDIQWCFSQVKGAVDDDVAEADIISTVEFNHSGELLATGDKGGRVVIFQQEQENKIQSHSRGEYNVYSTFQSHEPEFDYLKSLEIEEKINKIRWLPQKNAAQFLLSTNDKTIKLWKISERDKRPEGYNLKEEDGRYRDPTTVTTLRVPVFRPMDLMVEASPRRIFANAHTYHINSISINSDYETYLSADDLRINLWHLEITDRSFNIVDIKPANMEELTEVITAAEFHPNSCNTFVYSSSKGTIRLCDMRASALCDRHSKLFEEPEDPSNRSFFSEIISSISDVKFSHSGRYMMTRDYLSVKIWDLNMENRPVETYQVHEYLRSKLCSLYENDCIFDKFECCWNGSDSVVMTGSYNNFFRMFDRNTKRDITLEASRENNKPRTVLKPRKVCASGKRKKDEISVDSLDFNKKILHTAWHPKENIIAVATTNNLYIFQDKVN

## CC[C@H](C)[C@H](NC(=O)[C@H](CCCNC(=N)N)NC(=O)[C@H](CO)NC(=O)[C@H](Cc1c[nH]cn1)NC(=O)[C@H](CCCNC(=N)N)NC(=O)[C@H](CS)NC(=O)CNC(=O)[C@@H](NC(=O)[C@H](CCCNC(=N)N)NC(=O)[C@H](Cc1ccccc1)NC(=O)[C@@H](N)Cc1c[nH]cn1)[C@@H](C)CC)C(=O)NCC(=O)N[C@H](C(=O)N[C@H](C(=O)N[C@@H](CCCNC(=N)N)C(=O)N[C@@H](CCC(N)=O)C(=O)N[C@@H](CCCNC(=N)N)C(=O)N[C@@H](CCCNC(=N)N)C(=O)N[C@@H](C)C(=O)N[C@@H](CCCNC(=N)N)C(=O)N[C@@H](CC(N)=O)C(=O)NCC(=O)N[C@@H](C)C(=O)N[C@@H](CO)C(=O)N[C@@H](CCCNC(=N)N)C(=O)N[C@@H](CO)C(=O)O)[C@@H](C)O)C(C)C [SYRAPRO-2000]
  activation of protein phosphatase-2A1: 7 fold
  concentration above which there was inhibition of protein phosphatase-2A1 (biphasic effect): above 1000 nM
read-out: half maximal activation of protein phosphatase-2A1
  EC50: ~300 nM
